Test results taken from US9480701B2, “Low anticoagulant heparins” (priority 2012, dated 2016).
Entries after “also recorded” stand apart in the source; their conditions may differ. Where two headings read alike, the source gives them in different places.

Tests used:
[1] = test system: rosettes of the parasite FCR3S1.2; assay: Rosette disruption in vitro, parasite clone FCR3S1.2 and parasite cultures; assay type: cell-based, Plasmodium falciparum; conditions: for Disruption of rosettes: parasite FCR3S1.2, FIG. 5
[2] = Coagulation parameters (APTT, PT) in citrate plasma of dosed rats; assay type: in vivo, Sprague-Dawley rats
Experimental: (§1) Heparin and a LMWH preparation (Fragmin) were also studied for comparison. Basic test procedures were as follows:
Forty minutes after dosing, the rats were sacrificed by full bleeding. Citrate stabilized plasma was prepared from the blood. Plasma was stored in aliquots of 1 or 0.5 mL at −70° C. until analysis of APTT and PT.
(§2) The following compounds and doses were tested (each in groups of 8 rats) in juvenile rats of age 14±1 days: • 2. Saline: (Negative Control) • 3.

[3] = test system: binding of pE to endothelial cells; assay: Cytoadherence blocking and disruption, dynamic incubation; assay type: cell-based, Plasmodium falciparum; conditions: for Binding of pE to endothelial cell inhibited or reversed: parasite FCR3S1.2, FIG. 7
[4] = Rat tail incision bleeding time after i.v. dosing; assay type: in vivo, Sprague-Dawley rats
Experimental: as §1
The incision was 9 mm long and 1 mm deep and was standardized using a template device. Blood was blotted from the incision until bleeding stopped. The time during which visible bleeding could be observed was measured, for up to 25 minutes. The longer the bleeding time, the more pronounced the anti-coagulant effects of the administered agent.
as §2

factor Xa [5] = conditions: for comparison; not said whether anti-factor Xa or anti-factor IIa; cited from earlier work
[6] = test system: merozoite invasion of erythrocytes (P. falciparum, parasite FCR3S1.2); assay: Merozoite invasion inhibition assay; assay type: cell-based; conditions: for Merozoite invasion into fresh red blood cells inhibited: parasite FCR3S1.2, FIG. 8
Experimental: The merozoite invasion inhibition assay was performed with chemically modified heparin and unfractionated heparin Mature pE (trophozoite) synchronized P. falciparum cultures with a parasitemia of 0.4% and a hematocrit of 2% were grown in micro-cultures (100 ul) in the presence of increasing concentrations of chemically modified heparin or unfractionated heparin at 37° C. for 24-30 h. In order to quantify the parasitemia, the samples were stained for 10 s with acridine orange and then analyzed using a FACS instrument from Becton Dickinson. A minimum of 50,000 cells per sample were collected.

[7] = test system: P. falciparum-infected erythrocytes sequestered in the lungs
Experimental: Human pE were cultivated in vitro and enriched to a parasitemia above 70%. Prior to injection into the animals, human infected erythrocytes were radioactively labeled with ^99mTc. The rats were anaesthetized and the labeled pE erythrocytes were injected intravenously into the tail vein. […] The distribution of the labeled cells was monitored using a gamma camera for 30 min. The relative amount of labeled cells sequestered in the lungs was calculated by comparing the activity of excised lungs to that of the whole animal.

factor IIa = factor IIa (Homo sapiens, UniProt P00734)
factor Xa [8] = test system: factor Xa
[9] = test system: rosettes of fresh isolates of children with severe, complicated or mild malaria; conditions: 100 and 1000 μg/ml, FIG. 6
[10] = rat bleeding model, normalized to unfractionated heparin = 1

Heparin [reference compound]
Disruption of rosettes [1]: dose dependent manner | Relative Doses (estimated equipotent relative doses), APTT ([2]; rat, in vivo): 1 | Binding of pE to endothelial cell inhibited or reversed [3]: dose dependent manner | Relative Doses (estimated equipotent relative doses), Bleeding time ([4]; rat, in vivo): 1 | Anti-coagulant effect (bleeding time and coagulation parameters) ([4]; rat, in vivo, iv): profound effect on all parameters | Specific anti-coagulant activity, value corresponding to Table 5 (factor Xa [5]): at least 180 IU/mg | Merozoite invasion into fresh red blood cells inhibited [6]: dose dependent manner

sevuparin sodium [DF02]
Disruption of rosettes at highest concentration ([1]; 1000 μg/ml, with some parasites): total or close to total disruption of rosettes | Disruption of rosettes [1]: dose dependent manner | Sequestration of infected erythrocytes in the lungs of rats ([7]; FIG. 9): can be inhibited | Retention of uninfected labeled human erythrocytes, co-injection versus no substance ([7]; rat): No difference was seen | Effect on PT ([2]; adult rats, i.v.): too weak to allow for comparative estimates | Effect on PT ([2]; juvenile rats, age 14±1 days): weak | Relative Doses (estimated equipotent relative doses), APTT [2, 10]: 30-40 | Cytoadherence disruption: reduction of binding ([3]; pE adhered to the endothelium before incubation, FIG. 7): Up to 80% | Cytoadherence blocking: binding of pE blocked compared with untreated samples ([3]; pE and substance added simultaneously to the endothelium): Up to 80% | Binding of pE to endothelial cell inhibited or reversed [3]: dose dependent manner | Anticoagulant FIIa activity (factor IIa; drug substance Batch 1): 4.6 IU/mg | Anticoagulant FIIa activity (factor IIa; drug substance Batch 2): 5.0 IU/mg | Anticoagulant FIIa activity (factor IIa; drug substance Batch 3): 3.8 IU/mg | Anti-coagulant effect (bleeding time and coagulation parameters) ([4]; adult rats, i.v.): low anti-coagulant effect | Anti-coagulant effect (bleeding time and coagulation parameters) ([4]; juvenile rats, age 14±1 days): low anti-coagulant effect | Relative Doses (estimated equipotent relative doses), Bleeding time [4, 10]: 30-50 | Inhibitory effect on merozoite invasion compared with heparin ([6]; in vitro): equal potency per mg to heparin; also recorded: equal to those of standard heparin | Merozoite invasion into fresh red blood cells inhibited [6]: dose dependent manner | Anticoagulant activity anti-factor Xa (factor Xa [8]; drug substance Batch 1): 3.9 IU/mg | Anticoagulant activity anti-factor Xa (factor Xa [8]; drug substance Batch 2): 4.9 IU/mg | Anticoagulant activity anti-factor Xa (factor Xa [8]; drug substance Batch 3): 5.5 IU/mg | Sensitivity of rosettes of fresh isolates to treatment [9]: sensitive
